Results published in PubChem BioAssay AID330 (DTP/NCI, 2004).
“And” between values parts separate entries of the source, which are not always exact repeats. Identical values can stand only once. Toxic doses and inconclusive results are not listed. The calls were made as follows: active = survival T/C of 150% or more; inactive = T/C below 125% in these data. Square brackets hold non-standard residues; d marks the D form. Peptide text beside a SMILES is read from it. * marks the point of attachment. ξ: configuration not given here. Cbz = O=C(OCc1ccccc1)*; ξNva = CCCC(N)C(=O)O

System: P388 leukemia ip, CD2F1 mice, survival T/C
Assay: NCI In Vivo Anticancer Drug Screen. Data for tumor model P388 Leukemia (intraperitoneal) in CD2F1 (CDF1) mice
Settings: endpoint: median survival time, higher = longer survival
Outline: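 Mice carrying the transplanted tumor received test compound or vehicle. Survival was recorded in each group, and the value is the treated-group measurement divided by that of the vehicle-treated control group.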

[1] = dose: 25.0 mg/kg/injection, schedule: Q01DX009 (ip), vehicle: Klucel (hydroxypropylcellulose) (HPC)
[2] = dose: 50.0 mg/kg/injection, schedule: Q01DX009 (ip), vehicle: Klucel (hydroxypropylcellulose) (HPC)
[3] = dose: 100.0 mg/kg/injection, schedule: Q01DX009 (ip), vehicle: Klucel (hydroxypropylcellulose) (HPC)
[4] = dose: 50.0 mg/kg/injection, schedule: Q01DX009 (ip), vehicle: saline
[5] = dose: 100.0 mg/kg/injection, schedule: Q01DX009 (ip), vehicle: saline
[6] = dose: 50.0 mg/kg/injection, schedule: Q01DX009 (ip), vehicle: saline with Tween-80
[7] = dose: 100.0 mg/kg/injection, schedule: Q01DX009 (ip), vehicle: saline with Tween-80
[8] = dose: 100.0 mg/kg/injection, schedule: Q01DX001 (ip), vehicle: saline
[9] = dose: 200.0 mg/kg/injection, schedule: Q01DX001 (ip), vehicle: saline
[10] = dose: 200.0 mg/kg/injection, schedule: Q01DX009 (ip), vehicle: saline with Tween-80
[11] = dose: 200.0 mg/kg/injection, schedule: Q01DX009 (ip), vehicle: Klucel (hydroxypropylcellulose) (HPC)

Measured: T/C

O=[N+]([O-])c1cc(S(=O)(=O)O)cc([N+](=O)[O-])c1Cl
inactive: [1] 116 % of control | [2] 114 % of control | [3] 119 % of control

COc1ccc(N2c3ccccc3-c3cc[nH]c(=O)c3[C@H]2O)cc1OC
inactive: dose: 18.75 mg/kg/injection, schedule: Q01DX001 (ip), vehicle: Klucel (hydroxypropylcellulose) (HPC) 101 % of control | dose: 18.75 mg/kg/injection, schedule: Q04DX002 (ip), vehicle: Klucel (hydroxypropylcellulose) (HPC) 99 % of control | dose: 18.75 mg/kg/injection, schedule: Q04DX003 (ip), vehicle: Klucel (hydroxypropylcellulose) (HPC) 112 % of control | dose: 37.5 mg/kg/injection, schedule: Q01DX001 (ip), vehicle: Klucel (hydroxypropylcellulose) (HPC) 100 % of control | dose: 37.5 mg/kg/injection, schedule: Q04DX002 (ip), vehicle: Klucel (hydroxypropylcellulose) (HPC) 110 % of control | dose: 37.5 mg/kg/injection, schedule: Q04DX003 (ip), vehicle: Klucel (hydroxypropylcellulose) (HPC) 96 % of control | dose: 75.0 mg/kg/injection, schedule: Q01DX001 (ip), vehicle: Klucel (hydroxypropylcellulose) (HPC) 103 % of control | dose: 75.0 mg/kg/injection, schedule: Q04DX002 (ip), vehicle: Klucel (hydroxypropylcellulose) (HPC) 106 % of control | dose: 75.0 mg/kg/injection, schedule: Q04DX003 (ip), vehicle: Klucel (hydroxypropylcellulose) (HPC) 96 % of control | dose: 150.0 mg/kg/injection, schedule: Q01DX001 (ip), vehicle: Klucel (hydroxypropylcellulose) (HPC) 104 % of control | dose: 150.0 mg/kg/injection, schedule: Q04DX002 (ip), vehicle: Klucel (hydroxypropylcellulose) (HPC) 101 % of control | dose: 150.0 mg/kg/injection, schedule: Q04DX003 (ip), vehicle: Klucel (hydroxypropylcellulose) (HPC) 106 % of control

N=c1ccc([N+](=O)[O-])cn1O
inactive: [4] 98 % of control | [5] 96 % of control

Cc1cccnc1NC1OC(=O)c2ccccc21 (configuration not stated)
inactive: [6] 100 % of control | [7] 96 % of control

CC(C)S(=O)c1ccccc1 (configuration not stated)
inactive: dose: 50.0 mg/kg/injection, schedule: Q01DX001 (ip), vehicle: saline with Tween-80 103 % of control | dose: 100.0 mg/kg/injection, schedule: Q01DX001 (ip), vehicle: saline with Tween-80 95 % of control | dose: 200.0 mg/kg/injection, schedule: Q01DX001 (ip), vehicle: saline with Tween-80 95 % of control

CCN(C)C12CN3CN(CN(C3)C1)C2
inactive: [8] 101 % of control | [9] 110 % of control | dose: 400.0 mg/kg/injection, schedule: Q01DX001 (ip), vehicle: saline 102 % of control

Nc1nc(N)c2[nH]cnc2n1
inactive: dose: 6.25 mg/kg/injection, schedule: Q01DX009 (ip), vehicle: other 111 % of control | dose: 12.5 mg/kg/injection, schedule: Q01DX009 (ip), vehicle: other 100 % of control | dose: 25.0 mg/kg/injection, schedule: Q01DX009 (ip), vehicle: other 104 % of control | dose: 50.0 mg/kg/injection, schedule: Q01DX009 (ip), vehicle: other 95 % of control | [6] 90 % of control | dose: 50.0 mg/kg/injection, schedule: Q04DX003 (ip), vehicle: saline with Tween-80 108 % of control | dose: 100.0 mg/kg/injection, schedule: Q01DX009 (ip), vehicle: other 106 % of control | [7] 90 % of control | dose: 100.0 mg/kg/injection, schedule: Q04DX003 (ip), vehicle: saline with Tween-80 108 % of control | [10] 100 % of control | dose: 200.0 mg/kg/injection, schedule: Q04DX003 (ip), vehicle: saline with Tween-80 108 % of control | dose: 400.0 mg/kg/injection, schedule: Q01DX009 (ip), vehicle: saline with Tween-80 90 % of control | dose: 400.0 mg/kg/injection, schedule: Q04DX003 (ip), vehicle: saline with Tween-80 91 % of control

COc1nc(Nc2ccc(/C=C/c3ccc(Nc4nc(OC)nc(N(CCO)CCO)n4)cc3S(=O)(=O)O)c(S(=O)(=O)O)c2)nc(N(CCO)CCO)n1
inactive: dose: 100.0 mg/kg/injection, schedule: Q04DX003 (ip), vehicle: saline 98 % of control | dose: 200.0 mg/kg/injection, schedule: Q04DX003 (ip), vehicle: saline 98 % of control | dose: 400.0 mg/kg/injection, schedule: Q04DX003 (ip), vehicle: saline 103 % of control

CCOC(=O)c1nc(C)[nH]c1C
inactive: [2] 100 % of control | [3] 95 % of control | [11] 100 % of control

CCNCC(O)c1cccc(C(F)(F)F)c1 (configuration not stated)
inactive: [4] 102 % of control | [5] 109 % of control

CSC(=S)C(CNc1ncccn1)c1ccccc1 (configuration not stated)
inactive: dose: 60.0 mg/kg/injection, schedule: Q01DX005 (ip), vehicle: Klucel + Tween-80 89 % of control | dose: 120.0 mg/kg/injection, schedule: Q01DX005 (ip), vehicle: Klucel + Tween-80 89 % of control

COc1cc(OC)c(NC(=O)ON2C(=O)c3ccccc3C2=O)cc1Cl
inactive: dose: 12.5 mg/kg/injection, schedule: Q01DX009 (ip), vehicle: saline with Tween-80 119 % of control | dose: 25.0 mg/kg/injection, schedule: Q01DX009 (ip), vehicle: saline with Tween-80 122 % of control | [6] 122 % of control | [7] 110 % of control

NC(=S)c1ccc(C2Nc3cccnc3N2)cc1 (configuration not stated)
inactive: [6] 93 % of control | [7] 95 % of control | [10] 90 % of control

O=C1/C(=C/c2cccc3ccccc23)SC(=S)N1Cc1ccco1
inactive: [6] 92 % of control | [7] 92 % of control | [10] 99 % of control

O=C1NC(=O)[C@H]2C[C@H]3C(=O)NC(=O)[C@H]3[C@@H]12
inactive: [1] 99 % of control | [2] 101 % of control | [3] 102 % of control and 107 % of control | [11] 101 % of control and 107 % of control | dose: 400.0 mg/kg/injection, schedule: Q01DX009 (ip), vehicle: Klucel (hydroxypropylcellulose) (HPC) 96 % of control

CCCCC(N)P(=O)(O)O (configuration not stated)
inactive: dose: 12.5 mg/kg/injection, schedule: Q01DX009 (ip), vehicle: saline 87 % of control | dose: 25.0 mg/kg/injection, schedule: Q01DX009 (ip), vehicle: saline 92 % of control | [4] 86 % of control | [5] 97 % of control

CN(C)C(=O)c1cccc2ccc[n+](C)c12
inactive: dose: 78.0 micrograms/kg/injection, schedule: Q04DX002 (ip), vehicle: saline 98 % of control | dose: 156.0 micrograms/kg/injection, schedule: Q04DX002 (ip), vehicle: saline 99 % of control | dose: 312.0 micrograms/kg/injection, schedule: Q04DX002 (ip), vehicle: saline 98 % of control

O=C1CCCN1C(=O)C1CC1
inactive: dose: 50.0 mg/kg/injection, schedule: Q01DX001 (ip), vehicle: saline 100 % of control | [8] 109 % of control | [9] 100 % of control

CCCOC(=O)/C=C(\F)C(=O)OCCC
inactive: dose: 6.25 mg/kg/injection, schedule: Q04DX002 (ip), vehicle: saline with Tween-80 110 % of control | dose: 12.5 mg/kg/injection, schedule: Q04DX002 (ip), vehicle: saline with Tween-80 116 % of control | dose: 25.0 mg/kg/injection, schedule: Q04DX002 (ip), vehicle: saline with Tween-80 95 % of control

Oc1ccccc1-c1nc(-c2ccccc2)c(-c2ccccc2)[nH]1
inactive: dose: 100.0 mg/kg/injection, schedule: Q04DX003 (ip), vehicle: Klucel (hydroxypropylcellulose) (HPC) 106 % of control | dose: 200.0 mg/kg/injection, schedule: Q04DX003 (ip), vehicle: Klucel (hydroxypropylcellulose) (HPC) 101 % of control | dose: 400.0 mg/kg/injection, schedule: Q04DX003 (ip), vehicle: Klucel (hydroxypropylcellulose) (HPC) 101 % of control

CCOC(=O)C(C)(C)Br
inactive: dose: 100.0 mg/kg/injection, schedule: Q01DX009 (ip), vehicle: saline sonified 105 % of control | dose: 200.0 mg/kg/injection, schedule: Q01DX009 (ip), vehicle: saline sonified 105 % of control | dose: 400.0 mg/kg/injection, schedule: Q01DX009 (ip), vehicle: saline sonified 115 % of control

O=c1ccc2cc3c(c(O)c2o1)OC=CC3
inactive: [2] 98 % of control | [3] 94 % of control

CCCC(NC(=O)OCc1ccccc1)C(=O)NCC(N)=O (configuration not stated) (Cbz-[ξNva]-Gly-NH2)
inactive: dose: 50.0 mg/kg/injection, schedule: Q01DX005 (ip), vehicle: Klucel (hydroxypropylcellulose) (HPC) 103 % of control | dose: 100.0 mg/kg/injection, schedule: Q01DX005 (ip), vehicle: Klucel (hydroxypropylcellulose) (HPC) 100 % of control | dose: 200.0 mg/kg/injection, schedule: Q01DX005 (ip), vehicle: Klucel (hydroxypropylcellulose) (HPC) 100 % of control
